Test results: patent US20230085307A1, “PYRIDAZINONE COMPOUND AND HERBICIDE” (NISSAN CHEMICAL CORPORATION, priority 2019, published 2023)

Assays:
[1] = system: wild oat; assay: Test Example 4: herbicidal effect by soil treatment (Table 19, symbol I); type: in vivo, wild oat (Avena fatua); settings: amount of applied herbicide 320 g/ha
Outline: (§1)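 Applied as a water-diluted emulsion, the compound was sprayed onto soil covering newly sown seeds. Evaluation came three weeks after application, in a greenhouse held at 25° C. to 30° C.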

[2] = system: velvetleaf; assay: Test Example 5: herbicidal effect by foliage application, plastic box (Table 20, symbol M); type: in vivo, velvetleaf (Abutilon theophrasti); settings: foliage application, 320 g/ha, three weeks after application
Outline: (§2)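 Sow seeds spot-wise in sterilized diluvial soil; cover with ~1.5 cm soil. Grow 14 days in greenhouse, 25° C. to 30° C. Spray foliage with emulsion diluted to predetermined amount. Rate effect after 3 weeks.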

[3] = system: oval-leafed pondweed; assay: Test Example 1: herbicidal activity, application before weed generation under submerged conditions (Table 16, symbol C); type: in vivo, oval-leafed pondweed (Monochoria vaginalis); settings: amount of applied herbicide 320 g/ha
Outline: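 Emulsion formulation, water-diluted to set dose, was put onto the flooded surface (4 cm depth, alluvial soil) the same day weeds were sown and 2.5-leaf rice transplanted. After 3 weeks at 25-30 °C under glass, each species was rated 0 (≤5% kill) to 5 (≥90% kill).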

[4] = system: Italian ryegrass; assay: Test Example 5: herbicidal effect by foliage application, plastic box (Table 20, symbol K); type: in vivo, Italian ryegrass (Lolium multiflorum); settings: foliage application, 320 g/ha, three weeks after application
Outline: as §2

[5] = system: barnyard grass; assay: Test Example 5: herbicidal effect by foliage application, plastic box (Table 20, symbol H); type: in vivo, barnyard grass (Echinochloa crus-galli); settings: foliage application, 320 g/ha, three weeks after application
Outline: as §2

[6] = system: blackgrass; assay: Test Example 5: herbicidal effect by foliage application, plastic box (Table 20, symbol J); type: in vivo, blackgrass (Alopecurus myosuroides); settings: foliage application, 320 g/ha, three weeks after application
Outline: as §2

[7] = system: Chinese sprangletop; assay: Test Example 3: herbicidal effect by foliage application, Wagner pot (Table 18, symbol D); type: in vivo, chinese sprangletop (Leptochloa chinensis); settings: amount of applied herbicide 320 g/ha
Outline: (§3)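 Plants were sown in alluvial soil held under 0.1–0.5 cm standing water and grown 14 days in a greenhouse at 25–30 °C. An emulsifiable formulation, water-diluted to the set dose, was then sprayed onto the foliage, and effects were scored three weeks later using previously defined criteria.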

[8] = system: velvetleaf; assay: Test Example 4: herbicidal effect by soil treatment (Table 19, symbol M); type: in vivo, velvetleaf (Abutilon theophrasti); settings: amount of applied herbicide 320 g/ha
Outline: as §1

[9] = system: chickweed; assay: Test Example 5: herbicidal effect by foliage application, plastic box (Table 20, symbol P); type: in vivo, common chickweed (Stellaria media); settings: foliage application, 320 g/ha, three weeks after application
Outline: as §2

[10] = system: green foxtail; assay: Test Example 4: herbicidal effect by soil treatment (Table 19, symbol G); type: in vivo, green foxtail (Setaria viridis); settings: amount of applied herbicide 320 g/ha
Outline: as §1

[11] = system: Japanese bulrush; assay: Test Example 2: herbicidal activity, application during weed generation under submerged conditions (Table 17, symbol B); type: in vivo, Japanese bulrush (Schoenoplectus juncoides); settings: AAH 320 g/ha; application during weed generation, submerged conditions
Outline: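 Herbicide emulsion, diluted with water to the chosen amount, is applied onto 4 cm floodwater over alluvial soil where the weeds were co-sown and raised at 25–30° C. Application timing: 1–2 leaves. Assessment: three weeks afterwards.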

[12] = system: windgrass; assay: Test Example 4: herbicidal effect by soil treatment (Table 19, symbol L); type: in vivo, windgrass (Apera spica-venti); settings: amount of applied herbicide 320 g/ha
Outline: as §1

[13] = system: rice flat sedge; assay: Test Example 3: herbicidal effect by foliage application, Wagner pot (Table 18, symbol E); type: in vivo, rice flat sedge (Cyperus iria); settings: amount of applied herbicide 320 g/ha
Outline: as §3

[14] = system: lambsquarters; assay: Test Example 4: herbicidal effect by soil treatment (Table 19, symbol O); type: in vivo, lambsquarters (Chenopodium album); settings: amount of applied herbicide 320 g/ha
Outline: as §1

[15] = system: redroot pigweed; assay: Test Example 4: herbicidal effect by soil treatment (Table 19, symbol N); type: in vivo, redroot pigweed (Amaranthus retroflexus); settings: amount of applied herbicide 320 g/ha
Outline: as §1

[16] = system: persian speedwell; assay: Test Example 4: herbicidal effect by soil treatment (Table 19, symbol R); type: in vivo, Persian speedwell (Veronica persica); settings: amount of applied herbicide 320 g/ha
Outline: as §1

[17] = system: Italian ryegrass; assay: Test Example 4: herbicidal effect by soil treatment (Table 19, symbol K); type: in vivo, Italian ryegrass (Lolium multiflorum); settings: amount of applied herbicide 320 g/ha
Outline: as §1

SMILES | herbicidal effect, I: wild oat [1] | M: velvetleaf, herbicidal effect grade [2] | Herbicidal effect, C: oval-leafed pondweed [3] | K: Italian ryegrass, herbicidal effect grade [4] | H: barnyard grass, herbicidal effect grade [5] | J: blackgrass, herbicidal effect grade [6] | herbicidal effect on D: Chinese sprangletop [7] | herbicidal effect, M: velvetleaf [8] | P: chickweed, herbicidal effect grade [9] | herbicidal effect, G: green foxtail [10] | herbicidal effect rating, B: Japanese bulrush [11] | herbicidal effect, L: windgrass [12] | herbicidal effect on E: rice flat sedge [13] | herbicidal effect, O: lambsquarters [14] | herbicidal effect, N: redroot pigweed [15] | herbicidal effect, R: persian speedwell [16] | herbicidal effect, K: Italian ryegrass [17] | other results
CCCC(=O)Oc1c(C)nn(C)c(=O)c1-c1c(-c2ccccc2OC)sc2cc(F)ccc12 [3-004] | 3 (Herbicidal rate of 40% or more and less than 70%) | 5 (Herbicidal rate of 90% or more (almost completely withered)) | 3 (Herbicidal rate of 40% or more and less than 70%) | 5 (Herbicidal rate of 90% or more (almost completely withered)) | 5 (Herbicidal rate of 90% or more (almost completely withered)) | 5 (Herbicidal rate of 90% or more (almost completely withered)) | 4 (Herbicidal rate of 70% or more and less than 90%) | 4 (Herbicidal rate of 70% or more and less than 90%) | 5 (Herbicidal rate of 90% or more (almost completely withered)) | 4 (Herbicidal rate of 70% or more and less than 90%) | 2 (Herbicidal rate of 20% or more and less than 40%) | 5 (Herbicidal rate of 90% or more (almost completely withered)) | 5 (Herbicidal rate of 90% or more (almost completely withered)) | 5 (Herbicidal rate of 90% or more (almost completely withered)) | 5 (Herbicidal rate of 90% or more (almost completely withered)) | 4 (Herbicidal rate of 70% or more and less than 90%) | 5 (Herbicidal rate of 90% or more (almost completely withered)) | –
COc1ccc(-c2sc3cc(F)ccc3c2-c2c(O)c(C)nn(C)c2=O)cc1 [3-005] | 0 (Herbicidal rate of 5% or less (almost no effect)) | 5 (Herbicidal rate of 90% or more (almost completely withered)) | 4 (Herbicidal rate of 70% or more and less than 90%) | 3 (Herbicidal rate of 40% or more and less than 70%) | 3 (Herbicidal rate of 40% or more and less than 70%) | 0 (Herbicidal rate of 5% or less (almost no effect)) | 3 (Herbicidal rate of 40% or more and less than 70%) | 3 (Herbicidal rate of 40% or more and less than 70%) | 5 (Herbicidal rate of 90% or more (almost completely withered)) | 3 (Herbicidal rate of 40% or more and less than 70%) | 3 (Herbicidal rate of 40% or more and less than 70%) | 0 (Herbicidal rate of 5% or less (almost no effect)) | 5 (Herbicidal rate of 90% or more (almost completely withered)) | 4 (Herbicidal rate of 70% or more and less than 90%) | 5 (Herbicidal rate of 90% or more (almost completely withered)) | 4 (Herbicidal rate of 70% or more and less than 90%) | 5 (Herbicidal rate of 90% or more (almost completely withered)) | –
CCCC(=O)Oc1c(C)nn(C)c(=O)c1-c1c(-c2ccccc2OCC)sc2cc(F)ccc12 [3-007] | 2 (Herbicidal rate of 20% or more and less than 40%) | 5 (Herbicidal rate of 90% or more (almost completely withered)) | 4 (Herbicidal rate of 70% or more and less than 90%) | 5 (Herbicidal rate of 90% or more (almost completely withered)) | 5 (Herbicidal rate of 90% or more (almost completely withered)) | 5 (Herbicidal rate of 90% or more (almost completely withered)) | 5 (Herbicidal rate of 90% or more (almost completely withered)) | 4 (Herbicidal rate of 70% or more and less than 90%) | 5 (Herbicidal rate of 90% or more (almost completely withered)) | 3 (Herbicidal rate of 40% or more and less than 70%) | 4 (Herbicidal rate of 70% or more and less than 90%) | 5 (Herbicidal rate of 90% or more (almost completely withered)) | 5 (Herbicidal rate of 90% or more (almost completely withered)) | 0 (Herbicidal rate of 5% or less (almost no effect)) | 4 (Herbicidal rate of 70% or more and less than 90%) | 4 (Herbicidal rate of 70% or more and less than 90%) | 4 (Herbicidal rate of 70% or more and less than 90%) | –
COc1ccccc1-c1sc2c(Cl)c(OC)ccc2c1-c1c(O)c(C)nn(C)c1=O [Compound No. 7-001, 4-(7-chloro-6-methoxy-2-(2-methoxyphenyl)benzo[b]thiophen-3-yl)-5-hydroxy-2,6-dimeth ylpyridazin-3-(2H)-one] | – | – | 2 (Herbicidal rate of 20% or more and less than 40%) | – | – | – | – | – | – | – | 3 (Herbicidal rate of 40% or more and less than 70%) | – | – | – | – | – | – | I: wild oat, herbicidal effect grade [1]: 0 (Herbicidal rate of 5% or less (almost no effect)); herbicidal effect on velvetleaf (M) [2]: 5 (Herbicidal rate of 90% or more (almost completely withered)); herbicidal effect on Italian ryegrass (K) [4]: 5 (Herbicidal rate of 90% or more (almost completely withered)); herbicidal effect on barnyard grass (H) [5]: 5 (Herbicidal rate of 90% or more (almost completely withered)); herbicidal effect on blackgrass (J) [6]: 4 (Herbicidal rate of 70% or more and less than 90%); Herbicidal effect on D (Chinese sprangletop), foliage application [7]: 1 (Herbicidal rate of 5% or more and less than 20%); M: velvetleaf, herbicidal effect grade [8]: 3 (Herbicidal rate of 40% or more and less than 70%); G: green foxtail, herbicidal effect grade [10]: 0 (Herbicidal rate of 5% or less (almost no effect)); L: windgrass, herbicidal effect grade [12]: 0 (Herbicidal rate of 5% or less (almost no effect)); Herbicidal effect on E (rice flat sedge), foliage application [13]: 4 (Herbicidal rate of 70% or more and less than 90%); O: lambsquarters, herbicidal effect grade [14]: 5 (Herbicidal rate of 90% or more (almost completely withered)); N: redroot pigweed, herbicidal effect grade [15]: 5 (Herbicidal rate of 90% or more (almost completely withered)); R: persian speedwell, herbicidal effect grade [16]: 5 (Herbicidal rate of 90% or more (almost completely withered)); K: Italian ryegrass, herbicidal effect grade [17]: 3 (Herbicidal rate of 40% or more and less than 70%)
